Test system: Fisher rats
Experiment: Tele-Stereo-EEG: field potentials (spectral power) in freely moving rats
Assay type: in vivo, rat
Conditions: 4 mg i.p.

For OC1(c2ccc(Cl)cc2)CCN(Cc2c[nH]c3ccccc23)CC1 [L-741,626], the “changes in the EEG power spectrum” value was “strong decrease of spectral power mainly within the alpha2 waves”.
